Test results published in patent publication US9980942B2, “Rejuvenation of precursor cells” (Children's Hospital Medical Center, priority 2012, dated 2018).

Columns and labels:
dorsal skin = assay: Wound healing of full-thickness excision wounds after CASIN injection; format: in vivo, mice
Method: To further assess the effects of in vivo administration of CASIN on aging parameters in the skin, aged mice are treated with CASIN as described in Example 5. The treated and untreated aged and young mice are then tested for and wound healing, as described below.
On day 28 after initial treatment with CASIN, each mouse is tested with 25 mm oblong full-thickness excision wounds (6 mice of each type per experiment), including the striated muscle layer (panniculus carnosus), on the dorsal skin of treated and untreated mice. One day after surgery a clear thin film of dried exudate covers the wounds in both untreated and treated mice. Build-up of dehydrated wound crusts or scabs begin at day 3 and become subsequently more extensive. In the aged, untreated mice, scabs are thicker and extravasation of blood, visible in the gaps within the scabs, is more frequent and extensive than that in the treated mice. In control young mice, and in treated aged mice, loss of wound scabs begins at day 17 and is complete in all mice by day 24 with wounds well-healed and epithelial covering restored. In contrast, the scabs in untreated aged mice start to come off partially around day 14, resulting in a scab with a gaping red wound field, which is evident even at 22 days. Healing of untreated aged mice wounds remains incomplete on day 24, and complete healing in all mice is observed between 25 and 31 days. These experiments indicate that transient treatment (days 1-5) with CASIN causes improved healing of skin wounds.

aged LT-HSCs = assay: Competitive serial LT-HSC transplantation after ex vivo CASIN treatment; format: in vivo, mouse
Method: For competitive LT-HSC transplantation, young (2-4-month-old) and aged (20-26-month-old) C57BL/6 mice (Ly5.2^+) were used as donors. 200 LT-HSCs were sorted into 96 multi-well plates and cultured (either in suspension or adherent to fibronectin) for 16 hrs in HBSS+10% FBS±CASIN (5 μM) in a water jacketed incubator at 37° C., 5% CO2, 3% O2. Stem cells were then mixed with 3×10^5 BM cells from young (2-4-month-old) BoyJ competitor mice (Ly5.1^+) and then transplanted into BoyJ recipient mice (Ly5.1^+).
Peripheral blood (PB) chimerism was determined by FACS analysis every 8 weeks. 24 weeks post primary transplants, 2×10^6 BM cells from an individual primary recipient mouse were injected into an individual secondary pre-conditioned recipient BoyJ mouse. Experiment was performed three times with LT-HSCs cultured in suspension and two times with LTHSCs cultured on a fibronectin-coated substrate without any difference in experimental outcome. Primary transplanted mice were regarded engrafted when PB chimerism was higher or equal to 1.0% and contribution was detected in all lineages. Secondary transplanted mice were regarded as engrafted when PB chimerism was higher or equal to 0.5% and contribution was detected in all lineages.
PB and BM cell immunostaining was performed according to standard procedures and samples were analyzed on a LSRII flow cytometer (BD Biosciences). Lineage FACS analysis data are plotted as the percentage of B220+, CD3+ and Myeloid (Gr-1+, Mac-1+ and Gr-1+Mac-1+) cells among donor-derived Ly5.2^+ cells. As for early hematopoiesis analysis, mononuclear cells were isolated by low-density centrifugation (Histopaque 1083, Sigma) and stained with a cocktail of biotinylated lineage antibodies. After lineage depletion by magnetic separation (Dynalbeads, Invitrogen), cells were stained with anti-Sca-1 (clone D7) (eBioscience), anti-c-kit (clone 2B8) (eBioscience), anti-CD34 (clone RAM34) (eBioscience), anti-CD127 (clone A7R34) (eBioscience), anti-Flk-2 (clone A2F10) (eBioscience) and Streptavidin (eBioscience). Early hematopoiesis FACS analysis data were plotted as percentage of long-term hematopoietic stem cells (LTHSCs, gated as LSK CD34−/lowFlk2−), short-term hematopoietic stem cells (ST-HSCs, gated as LSK CD34+Flk2−) and lymphoid-primed multipotent progenitors (LMPPs, gated as LSK CD34+Flk2+) (Adolfsson et al., 2005) distribution among donor-derived LSKs (Linnegc-kit+sca-1+ cells). LSK and common lymphoid progenitor cells (CLP, gated as Lin−c-Kit−/low Sca-1−/low IL7Rα+) (Karsunky et al., 2008) were plotted as percentage among donor-derived Linneg cells. In order to isolate LT-HSCs, lineage depletion was performed to enrich for lineage negative cells. Lineage negative cells were then stained as aforementioned and sorted using a BD FACS Aria I or a BD FACS Aria III (BD Bioscience).

HSC = assay: In vivo rejuvenation of HSC (Example 6); parameters: species or system mice
Method: To test the extent to which CASIN rejuvenates HSC in vivo, aged (20+ months old mice) are given CASIN i. v. or i.p. twice daily for 28 days and compared to young as well as aged solvent injected control groups. In 28 days most of the HSCs cycle at least once in vivo. Subsequently, PB is harvested every 14 days for a total of 2 months and differential blood counts (myeloid cells, lymphoid cells, red blood cells etc) are determined by hemavat counting and flow cytometry. At 3 months post CASIN treatment, when hematopoesis should be fully supported by stem cell activity of the CASIN exposed HSCs, animals are sacrificed and the number of early hematopoietic progenitor cells (Lineage^negc-Kit^+Sca-1^+ or LSK), long-term repopulating-HSC (LSKCD34^low/−Flk-2^−, LT-HSC), lymphoid-primed multi-potent progenitors (LMPPs, LSKCD34^+Flk-2^+11, 23, 24) are determined.
Separately, to investigate the effect of CASIN on stem cell fitness and lineage differentiation, standard competitive transplantation assays are performed using the syngeneic CD45.1/CD45.2 surface marker system to differentiate donor from recipient cells. […] Lineage chimerism (myeloid, B- and T-lymphoid) in peripheral blood (PB) is then determined up to 24-weeks post-transplant. […]

skin = assay: Topical rejuvenation of dermal tissue; format: in vivo; conditions: aged mice, topical non-transdermal formulation
Method: To further assess the effects of in vivo administration of CASIN on aging parameters in the skin, aged mice are treated with CASIN as described in Example 5. However, instead of intraperitoneal injection, CASIN is administered topically in a formulation designed for non-transdermal use. The treated and untreated aged and young mice are then tested for skin thickness and wound healing.

[1] = treated aged mice, 25 mm full-thickness excision wounds

Structure (SMILES): OCCNC1CCCc2c1[nH]c1ccc(-c3ccccc3)cc21 (stereo not shown) [CASIN]
- wound healing (dorsal skin; aged mice treated as in Example 5): respond similarly or nearly identical to the skin of young mice
- loss of wound scabs begins (dorsal skin; [1]): 17 days
- loss of wound scabs complete in all mice (dorsal skin; [1]): ≤ 24 days
- contribution to the B-cell compartment in PB (aged LT-HSCs; primary recipients): increase
- contribution to the myeloid lineage (aged LT-HSCs; primary recipients): reduced
- frequency of donor-derived LT-HSCs among donor-derived LSKs (aged LT-HSCs; primary recipients): significantly reduced
- B-cell and myeloid engraftment in PB and BM (aged LT-HSCs; secondary transplant): indistinguishable from young LT-HSCs
- contribution to the LT-HSC pool in BM (aged LT-HSCs; secondary transplant): indistinguishable from young LT-HSCs
- overall regenerative capacity (chimerism in PB) (aged LT-HSCs; secondary transplant, compared to aged LT-HSCs): increased and stable chimerism in PB
- preferential differentiation towards the myeloid lineage (HSC; CASIN-treated aged HSCs): ameliorated
- chimerism in competitive transplant assays (HSC; HSCs from CASIN-treated aged animals): greater than the overall chimerism supported by aged HSCs and similar to that observed for young HSCs
- skin thickness (skin): approximately equal to that of young mice
- wound healing (skin): respond similarly or nearly identical to the skin of young mice
